Results from patent publication US20150086509A1, “COMPOSITIONS AND METHODS FOR TREATING CANCER USING INTERFERON AND MAPK PATHWAY INHIBITOR” (The Trustees of Columbia University in the City of New York, priority 2013, published 2015).
Entries after “also recorded” stand apart in the source; their conditions may differ.

Columns and labels:
Format in all cases: cell-based, human
[1] = test system: intrinsic apoptotic pathway (cytochrome C release); test: Cytochrome C release from the mitochondria
Description: Cytochrome C release was assessed on fresh unfrozen pellets using Sucrose/Mannitol buffer (Majewski et al., 2004). Full details in the supplementary material.
Protocol for Cytochrome C release is taken, as is, from Majewski et al 2004. Lysis buffer: 20 mM Hepes-KOH, [pH 7.5], 210 mM sucrose, and 70 mM mannitol; 1.5 mM MgCl2, 10 mM […], protease inhibitor, and 1 mg digitonin/1 mL lysis buffer.
Cells are trypsinized, collected and spun down in 4C. They are then washed with PBS and spun down again. It is critical that cell pellets will be lysed immediately without freezing. Cells are gently suspended, without vortexing, in lysis buffer. Roughly double the cell pellet volume is used. They are incubated in 25C for 3-10 min, depending all cell line. Spun down at 4C for 20 minutes at highest speed. Supernatant contains cytoplasmic fraction.

[2] = test system: melanoma cell lines (low- and high-pSTAT1); test: Apoptosis assessed by TUNEL staining 72 h after treatment; details: PD325901 50 nM
Description: (§1) Control samples were collected untreated at time of treatment.
Apoptosis was assessed by TUNEL staining Cells were plated in 6-well plates at 200K cells/well. […] TUNEL was performed using Invitrogen BrdU TUNEL kit.

[3] = test system: pSTAT1 (interferon-STAT1 pathway); test: Western blots of pSTAT1 levels; details: low- and high-pSTAT1 cell lines
Description: as §1
(§2) Samples for protein analysis were lysed using RIPA buffer. Protein concentration was assessed using BCA staining Samples were then normalized to a fixed concentration and mixed with a 5× glycerol/SDS/DTT loading buffer. Lysates were run on gradient (4-12%) Bis-Tris gels. After incubation with horseradish peroxidase-conjugated secondary antibodies, proteins were detected using chemiluminescence.

[4] = test system: caspase pathway (caspases 9, 7 and 3); test: Cleaved caspases by Western blot; details: MEK inhibition
Description: as §1, §2

[5] = test system: Ma1Me3M, a BRAF-V600E cell line; test: Comparison of BRAF and MEK inhibition, transcriptional response (Illumina HumanHT-12 microarrays)
Description: We assessed expression fold change at 1 hour, 2, 4, and 8 hours following treatment using Illumina HumanHT-12 microarrays.
Illumina's probe pvalues were used to filter out probes. Probes with p-value>0.05 in more than half of the samples were removed. Then microarrays were normalized according to their 75% percentile values. The 2 control array were averaged, and treated samples were compared to the averaged control to assess fold change.

high pSTAT1 cell line = test: Cytotoxicity of IFN by SubG1 percentage; details: 48 hours after treatment
Description: The cytotoxicity of IFN was assessed in high pSTAT1 cell line, 48 hours after treatment using SubG1 percentage. […] Cells plated in 6 well plates, 200K cells/well, in 2 mL of growth media. […] 50K cells per well were plated in 6-well plates with 2 mL of media and treated 24 hours later. Cells were counted every 24 hours up to 72 hours. C. […] Cells were plated in 6 well plates, 200K cells/well with 2 mL media.

O=C(NOC[C@H](O)CO)c1ccc(F)c(F)c1Nc1ccc(I)cc1F [PD325901]
time of cytochrome C release after treatment ([1]; MEKi): approx. 36 hours
cytochrome C release ([1]; MEKi alone, all cell lines): activates the intrinsic apoptotic pathway by cytochrome C release
cytotoxic effect of MEK inhibition alone (TUNEL) ([2]; high-pSTAT1 cell lines): only mild response
cytotoxic effect of MEK inhibition alone (TUNEL) ([2]; high-pSTAT1 cell lines, listed as MEK inhibition): mostly resistant
cytotoxic effect of MEK inhibition alone (TUNEL) ([2]; low-pSTAT1 cell lines): sensitive
pSTAT1 levels after treatment [3]: increase in pSTAT1 levels
cleavage/activation of caspase 7 and 9 ([4]; high-pSTAT1 cell lines): not cleaved
cleavage/activation of caspase 7 and 9 ([4]; low pSTAT1 cell lines): cleaved and activated

CCCS(=O)(=O)Nc1ccc(F)c(C(=O)c2c[nH]c3ncc(Cl)cc23)c1F [PLX4720]
transcriptional response compared with the MEK inhibitor PD325901 ([5]; 2 uM PLX4720 vs 50 nM PD325901, BRAF-V600E cell line): almost identical transcriptional response
difference in gene expression fold change between MEKi and BRAFi treatments ([5]; Ma1Me3M, all time points (1, 2, 4, 8 hours)): ≤ 0.5 fold (on a log 2 scale)

IFNα
cytotoxic / apoptotic effect of IFN (SubG1 percentage) (high pSTAT1 cell line): weaker cytotoxic effect than IFNβ; also recorded: dose-dependent effects
